Experimental data as given in patent US7494997B2, “Amide derivative” (Nippon Shinyaku Co., Ltd., priority 2002, dated 2009).

What was measured:
E255K mutant BCR-ABL = target: T1, E255K mutant BCR-ABL (Homo sapiens, UniProt P00519, E255K); experiment: Self-phosphorylation inhibitory effect on mutant (E255K) BCR-ABL in transfected 293T cells (Western blot, PY99); type: cell-based; settings: 2 hours
T1 construct: expressed in transfected cells; host or cells: 293T cells (ATCC), Lipofectamine transfection; the other entry of the earlier key: BCR (P11274, Breakpoint cluster region protein)
Protocol: The cells were seeded in an amount of 5 ml in a Poly-L-Lysin coated 6 cm dish so as to give 1.2×10^6 cells/well. […] Using a Lipofectamine reagent (manufactured by Invitrogen), 2 μg of E255K mutant bcr-abl gene expression vector was transfected into the cell. […] The dish was incubated in a CO2 incubator for 2 hours. After treatment with trypsin, the cells were collected into a 15 ml centrifuge tube. The tube was centrifuged at 1000 rpm at room temperature for one minute. After removal of the medium, 50 μl of a cell lysis solution was added. The cells were subjected to cytolysis with a mixer. The tube was left to stand at 4° C. for 15 minutes and transferred to 1.5 ml tube. The tube was centrifuged at 12,000 rpm at 4° C. for 15 minutes. The cell lysate was collected into another 1.5 ml tube. The concentration of protein was measured according to BCA method. The samples of cell lysate containing […] of protein was analyzed by SDS-PAGE polyacrylamide. After electrophoresis, the protein was transferred onto a nylon filter (Hybond-P) with wet method at 4° C. overnight. The nylon filter was reacted in 10 ml of PBS/0.1% Tween-20 containing 0.2 μg/ml anti-phosphorylation tyrosin kinase antibody (PY99) (manufactured by Toyobo) at room temperature for one hour. The nylon filter was washed with PBS three times and then reacted 10 ml of PBS/0.1% Tween-20 containing 0.4 μg/ml Anti-mouse IgG AP-conjugated (manufactured by Cell Signaling) at room temperature for one hour. After the nylon filter was washed with PBS four times, self-phosphorylation of p210 BCR-ABL was detected with alkaline phosphatase color developing reagent.
The results are shown as follows: +++: almost perfectly inhibition of phosphorylation; ++: around half of inhibition; +: week inhibition; and −: no inhibition.

K562 cells = experiment: Cell growth inhibitory effect, K562 cells (WST-8, 72 hours); settings: for IC50: Homo sapiens, K562, 72 h, read-out: K562 cells (IC50 value: μM); for Ratio (U937 cells/K562 cells): ratio of IC50 values U937 cells/K562 cells
U937 cells = experiment: Cell growth inhibitory effect, U937 cells (WST-8, 72 hours); settings: Homo sapiens, U-937, 72 h, read-out: U937 cells (IC50 value: μM)

T1 sequence (P00519 28-1130 E255K limits assumed): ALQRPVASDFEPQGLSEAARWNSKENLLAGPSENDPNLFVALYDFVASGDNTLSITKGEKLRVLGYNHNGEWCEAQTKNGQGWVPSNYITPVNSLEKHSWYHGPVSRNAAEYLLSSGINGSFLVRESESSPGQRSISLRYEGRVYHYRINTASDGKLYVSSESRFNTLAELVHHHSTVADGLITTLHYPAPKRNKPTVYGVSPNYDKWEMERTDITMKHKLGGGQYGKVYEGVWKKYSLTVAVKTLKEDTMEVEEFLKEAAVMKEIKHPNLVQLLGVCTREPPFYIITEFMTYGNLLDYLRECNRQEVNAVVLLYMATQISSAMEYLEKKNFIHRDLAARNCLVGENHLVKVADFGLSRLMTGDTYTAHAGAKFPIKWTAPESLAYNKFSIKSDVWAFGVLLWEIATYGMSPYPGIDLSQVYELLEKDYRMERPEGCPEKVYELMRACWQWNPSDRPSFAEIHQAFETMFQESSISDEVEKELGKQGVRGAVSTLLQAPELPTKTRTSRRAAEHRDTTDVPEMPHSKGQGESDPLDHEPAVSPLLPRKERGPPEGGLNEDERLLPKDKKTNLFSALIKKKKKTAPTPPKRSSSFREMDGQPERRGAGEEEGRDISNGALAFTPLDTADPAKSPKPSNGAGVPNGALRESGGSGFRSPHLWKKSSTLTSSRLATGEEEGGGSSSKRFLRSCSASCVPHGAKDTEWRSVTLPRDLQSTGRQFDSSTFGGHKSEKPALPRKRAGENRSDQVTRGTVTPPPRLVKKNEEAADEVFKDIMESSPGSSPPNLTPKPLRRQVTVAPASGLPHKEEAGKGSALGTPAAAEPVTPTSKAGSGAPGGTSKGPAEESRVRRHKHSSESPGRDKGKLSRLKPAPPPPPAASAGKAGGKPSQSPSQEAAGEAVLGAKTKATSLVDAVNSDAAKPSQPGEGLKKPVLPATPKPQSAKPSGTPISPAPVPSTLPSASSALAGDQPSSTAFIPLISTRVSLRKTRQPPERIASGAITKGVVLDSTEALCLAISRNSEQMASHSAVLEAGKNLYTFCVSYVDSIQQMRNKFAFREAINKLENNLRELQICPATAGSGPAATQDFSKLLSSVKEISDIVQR

SMILES	Self-phosphorylation inhibitory effect on E255K mutant BCR-ABL (E255K mutant BCR-ABL; 1 μM)	Self-phosphorylation inhibitory effect on E255K mutant BCR-ABL (E255K mutant BCR-ABL; 3 μM)	Self-phosphorylation inhibitory effect on E255K mutant BCR-ABL (E255K mutant BCR-ABL; 10 μM)	melting point	IC50 (K562 cells) [µM]	IC50 (U937 cells) [µM]	Self-phosphorylation inhibitory effect on E255K mutant BCR-ABL (E255K mutant BCR-ABL; 0.1 μM)	Self-phosphorylation inhibitory effect on E255K mutant BCR-ABL (E255K mutant BCR-ABL; 0.3 μM)	Ratio (U937 cells/K562 cells) (K562 cells)
Cc1ccc(NC(=O)c2ccc(CN3CCN(C)CC3)c(Br)c2)cc1Nc1nccc(-c2cnccn2)n1 [Example 7, 3-bromo-4-(4-methylpiperazin-1-ylmethyl)-N-{4-methyl-3-[4-(2-pyrazinyl)pyrimidin-2-ylamino]phenyl}benzamide]	−	++	+++	213 to 214 °C (dec.)	0.0054	6.51			1205.6
Cc1ccc(NC(=O)c2ccc(CN3CCN(C)CC3)c(C(F)(F)F)c2)cc1Nc1nccc(-c2cncc(Br)c2)n1 [Example 10, 4-(4-methylpiperazin-1-ylmethyl)-3-trifluoromethyl-N-{3-[4-(5-bromopyridin-3-yl)pyrimidin-2-ylamino]-4-methylphenyl}benzamide]	++	+++	+++	171 to 173 °C (dec.)	0.0014	3.27	−	−	2335.7
Cc1ccc(NC(=O)c2ccc(CN3CCN(C)CC3)c(Br)c2)cc1Nc1nccc(-c2cncnc2)n1 [Example 13, 3-bromo-4-(4-methylpiperazin-1-ylmethyl)-N-{4-methyl-3-[4-(5-pyrimidinyl)pyrimidin-2-ylamino]phenyl}benzamide]	++	+++	+++	238 to 240 °C (dec.)	0.0012	6.2	−	+	5166.7
COc1cc(C(=O)Nc2ccc(C)c(Nc3nccc(-c4cccnc4)n3)c2)cc(OC)c1CN1CCN(C)CC1 [Example 25, 3,5-dimethoxy-4-(4-methylpiperazin-1-ylmethyl)-N-{4-methyl-3-[4-(3-pyridyl)pyrimidin-2-ylamino]phenyl}benzamide]				201 to 214 °C (dec.)	0.03	17			566.7
Cc1ccc(NC(=O)c2ccc(CN(C)C)c(Br)c2)cc1Nc1nccc(-c2cccnc2)n1 [Example 29, 3-bromo-4-(N,N-dimethylaminomethyl)-N-{4-methyl-3-[4-(3-pyridyl)pyrimidin-2-ylamino]phenyl}benzamide]				154 to 155 °C	0.017	> 10			>588.2
Cc1ccc(NC(=O)c2ccc(CN3CCCN(C)CC3)c(Br)c2)cc1Nc1nccc(-c2cccnc2)n1 [Example 35, 3-bromo-4-(4-methyl-hexahydro-1H-1,4-diazepin-1-ylmethyl)-N-{4-methyl-3-[4-(3-pyridyl)pyrimidin-2-ylamino]phenyl}benzamide]				156 to 157 °C	0.0075	5.22			696.0
COC(=O)c1cc(C(=O)Nc2ccc(C)c(Nc3nccc(-c4cccnc4)n3)c2)ccc1CN1CCN(C)CC1 [Example 39, 3-methoxycarbonyl-4-(4-methylpiperazin-1-ylmethyl)-N-{4-methyl-3-[4-(3-pyridyl)pyrimidin-2-ylamino]phenyl}benzamide]				159 to 161 °C (dec.)	0.035	> 10			>285.7

Now from value to compound, other results behind:

Self-phosphorylation inhibitory effect on E255K mutant BCR-ABL (E255K mutant BCR-ABL; 1 μM)	Self-phosphorylation inhibitory effect on E255K mutant BCR-ABL (E255K mutant BCR-ABL; 3 μM)	Self-phosphorylation inhibitory effect on E255K mutant BCR-ABL (E255K mutant BCR-ABL; 10 μM)	melting point	IC50 (K562 cells) [µM]	IC50 (U937 cells) [µM]	Self-phosphorylation inhibitory effect on E255K mutant BCR-ABL (E255K mutant BCR-ABL; 0.1 μM)	Self-phosphorylation inhibitory effect on E255K mutant BCR-ABL (E255K mutant BCR-ABL; 0.3 μM)	SMILES	Ratio (U937 cells/K562 cells) (K562 cells)
+	++	+++	199 to 200 °C (dec.)	0.0023	3.34			Cc1ccc(NC(=O)c2ccc(CN3CCN(C)CC3)c(I)c2)cc1Nc1nccc(-c2cccnc2)n1 [Example 2, 3-iodo-4-(4-methylpiperazin-1-ylmethyl)-N-{4-methyl-3-[4-(3-pyridyl)pyrimidin-2-ylamino]phenyl}benzamide]	1452.2
−	+	+++	193 to 194 °C (dec.)	0.0046	5.01			Cc1ccc(NC(=O)c2ccc(CN3CCN(C)CC3)c(Cl)c2)cc1Nc1nccc(-c2cccnc2)n1 [Example 3, 3-chloro-4-(4-methylpiperazin-1-ylmethyl)-N-{4-methyl-3-[4-(3-pyridyl)pyrimidin-2-ylamino]phenyl}benzamide]	1089.1
+	++	+++	194 to 195 °C (dec.)	0.0017	1.86			Cc1ccc(NC(=O)c2ccc(CN3CCN(C)CC3)c(Br)c2)cc1Nc1nccc(-c2cncc(Br)c2)n1 [Example 9, 3-bromo-4-(4-methylpiperazin-1-ylmethyl)-N-{3-[4-(5-bromopyridin-3-yl)pyrimidin-2-ylamino]-4-methylphenyl}benzamide]	1094.1
			204 to 205 °C	0.00065	6.97			CCCN1CCN(Cc2ccc(C(=O)Nc3ccc(C)c(Nc4nccc(-c5cccnc5)n4)c3)cc2Br)CC1 [Example 28, 3-bromo-4-[4-(n-propyl)piperazin-1-ylmethyl]-N-{4-methyl-3-[4-(3-pyridyl)pyrimidin-2-ylamino]phenyl}benzamide]	10723.1
			172 to 173 °C	0.022	> 10			CCN(CC)Cc1ccc(C(=O)Nc2ccc(C)c(Nc3nccc(-c4cccnc4)n3)c2)cc1Br [Example 30, 3-bromo-4-(N,N-diethylaminomethyl)-N-{4-methyl-3-[4-(3-pyridyl)pyrimidin-2-ylamino]phenyl}benzamide]	>454.5
			191 to 193 °C (dec.)	0.0054	4.2			Cc1ccc(NC(=O)c2ccc(CN3CCN(C)CC3)c(C#N)c2)cc1Nc1nccc(-c2cccnc2)n1 [Example 40, 3-cyano-4-(4-methylpiperazin-1-ylmethyl)-N-{4-methyl-3-[4-(3-pyridyl)pyrimidin-2-ylamino]phenyl}benzamide]	777.8
